Laboratory results reported in PubChem BioAssay (NCI).
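Test compounds were applied to cells in 96-well plates for 48 hours at 5 doses. Definition used: TGI = concentration required for complete inhibition of growth.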

Tests used:
Test in all cases: NCI tumour cell line growth inhibition, 48 h
T-47D breast = tested on: T-47D breast
U251 CNS = tested on: U251 CNS
SNB-19 CNS = tested on: SNB-19 CNS
NCI/ADR-RES ovarian = tested on: NCI/ADR-RES ovarian
HOP-62 NSCLC = tested on: HOP-62 NSCLC
K-562 leukemia = tested on: K-562 leukemia
PC-3 prostate = tested on: PC-3 prostate
IGROV1 ovarian = tested on: IGROV1 ovarian
COLO 205 colon = tested on: COLO 205 colon
OVCAR-4 ovarian = tested on: OVCAR-4 ovarian
M14 melanoma = tested on: M14 melanoma
DU-145 prostate = tested on: DU-145 prostate
OVCAR-5 ovarian = tested on: OVCAR-5 ovarian
OVCAR-8 ovarian = tested on: OVCAR-8 ovarian
ACHN renal = tested on: ACHN renal
HL-60(TB) leukemia = tested on: HL-60(TB) leukemia
OVCAR-3 ovarian = tested on: OVCAR-3 ovarian
RXF 393 renal = tested on: RXF 393 renal
HCC-2998 colon = tested on: HCC-2998 colon
SNB-75 CNS = tested on: SNB-75 CNS
UO-31 renal = tested on: UO-31 renal
LOX IMVI melanoma = tested on: LOX IMVI melanoma
MCF7 breast = tested on: MCF7 breast
SN12C renal = tested on: SN12C renal
SF-268 CNS = tested on: SF-268 CNS
NCI-H23 lung = tested on: NCI-H23 lung
NCI-H226 lung = tested on: NCI-H226 lung
UACC-257 melanoma = tested on: UACC-257 melanoma
NCI-H460 lung = tested on: NCI-H460 lung
SK-OV-3 ovarian = tested on: SK-OV-3 ovarian
786-0 renal = tested on: 786-0 renal
MOLT-4 leukemia = tested on: MOLT-4 leukemia
NCI-H522 lung = tested on: NCI-H522 lung
A498 renal = tested on: A498 renal
SK-MEL-2 melanoma = tested on: SK-MEL-2 melanoma
HS 578T breast = tested on: HS 578T breast
SF-539 CNS = tested on: SF-539 CNS
SR leukemia = tested on: SR leukemia
EKVX NSCLC = tested on: EKVX NSCLC
MDA-N = tested on: MDA-N
SF-295 CNS = tested on: SF-295 CNS
MDA-MB-435 = tested on: MDA-MB-435
RPMI-8226 leukemia = tested on: RPMI-8226 leukemia
HCT-116 colon = tested on: HCT-116 colon
CAKI-1 renal = tested on: CAKI-1 renal
HOP-92 NSCLC = tested on: HOP-92 NSCLC
BT-549 breast = tested on: BT-549 breast
HCT-15 colon = tested on: HCT-15 colon
SK-MEL-28 melanoma = tested on: SK-MEL-28 melanoma
MDA-MB-231 breast = tested on: MDA-MB-231 breast
MALME-3M melanoma = tested on: MALME-3M melanoma
HT29 colon = tested on: HT29 colon
A549 NSCLC = tested on: A549 NSCLC
TK-10 renal = tested on: TK-10 renal
KM12 colon = tested on: KM12 colon
SW-620 colon = tested on: SW-620 colon
SK-MEL-5 melanoma = tested on: SK-MEL-5 melanoma

In the case of `O=[N+]([O-])c1ccc2c(c1)c1nn2CCCCOc2nn(c3ccc([N+](=O)[O-])cc23)CCCCO1`, the TGI (T-47D breast) is reported as over 100 µM, the TGI (U251 CNS) is reported as over 100 µM and the TGI (SNB-19 CNS) is reported as over 100 µM. For the same molecule, the TGI (NCI/ADR-RES ovarian) was over 100 µM, the TGI (HOP-62 NSCLC) was over 100 µM and the TGI (K-562 leukemia) was over 100 µM. The TGI (PC-3 prostate) was over 100 µM, the TGI (IGROV1 ovarian) was over 100 µM and the TGI (COLO 205 colon) was over 100 µM. For the same molecule, the TGI (OVCAR-4 ovarian) was over 100 µM, the TGI (M14 melanoma) was over 100 µM and the TGI (DU-145 prostate) was over 100 µM. The TGI (OVCAR-5 ovarian) was over 100 µM, the TGI (OVCAR-8 ovarian) was over 100 µM and the TGI (ACHN renal) was over 100 µM. It also gave a TGI (HL-60(TB) leukemia) of over 100 µM, a TGI (OVCAR-3 ovarian) of over 100 µM and a TGI (RXF 393 renal) of over 100 µM. The TGI (HCC-2998 colon) was over 100 µM, the TGI (SNB-75 CNS) was over 100 µM and the TGI (UO-31 renal) was over 100 µM. It also gave a TGI (LOX IMVI melanoma) of over 100 µM, a TGI (MCF7 breast) of over 100 µM and a TGI (SN12C renal) of over 100 µM. The TGI (SF-268 CNS) was over 100 µM, the TGI (NCI-H23 lung) was over 100 µM and the TGI (NCI-H226 lung) was over 100 µM. It also gave a TGI (UACC-257 melanoma) of over 100 µM, a TGI (NCI-H460 lung) of over 100 µM and a TGI (SK-OV-3 ovarian) of over 100 µM. It also gave a TGI (786-0 renal) of over 100 µM, a TGI (MOLT-4 leukemia) of over 100 µM and a TGI (NCI-H522 lung) of over 100 µM. It also gave a TGI (A498 renal) of over 100 µM, a TGI (SK-MEL-2 melanoma) of over 100 µM and a TGI (HS 578T breast) of over 100 µM. The TGI (SF-539 CNS) was over 100 µM, the TGI (SR leukemia) was over 100 µM and the TGI (EKVX NSCLC) was over 100 µM. It also gave a TGI (MDA-N) of over 100 µM, a TGI (SF-295 CNS) of over 100 µM and a TGI (MDA-MB-435) of over 100 µM. For the same molecule, the TGI (RPMI-8226 leukemia) was over 100 µM, the TGI (HCT-116 colon) was over 100 µM and the TGI (CAKI-1 renal) was over 100 µM. The TGI (HOP-92 NSCLC) was over 100 µM, the TGI (BT-549 breast) was over 100 µM and the TGI (HCT-15 colon) was over 100 µM. It also gave a TGI (SK-MEL-28 melanoma) of over 100 µM, a TGI (MDA-MB-231 breast) of over 100 µM and a TGI (MALME-3M melanoma) of over 100 µM.

With `c1ccc2c(c1)c1c(n2CCOCCCN2CCCCC2)CCCC1` the TGI (T-47D breast) was 43.9 µM, the TGI (U251 CNS) was 30.5 µM and the TGI (SNB-19 CNS) was 75.4 µM. It also gave a TGI (NCI/ADR-RES ovarian) of 40.6 µM, a TGI (HOP-62 NSCLC) of 30.6 µM and a TGI (K-562 leukemia) of 30.9 µM. For the same molecule, the TGI (PC-3 prostate) was 33.1 µM, the TGI (IGROV1 ovarian) was 29.2 µM and the TGI (COLO 205 colon) was 45.5 µM. The TGI (OVCAR-4 ovarian) was 57 µM, the TGI (M14 melanoma) was over 100 µM and the TGI (DU-145 prostate) was over 100 µM. It also gave a TGI (OVCAR-5 ovarian) of 30 µM, a TGI (HT29 colon) of 24.7 µM and a TGI (OVCAR-8 ovarian) of 32.5 µM. For the same molecule, the TGI (ACHN renal) was 28.4 µM, the TGI (HL-60(TB) leukemia) was 30.4 µM and the TGI (OVCAR-3 ovarian) was 30.7 µM. The TGI (RXF 393 renal) was 25.1 µM, the TGI (HCC-2998 colon) was 33.7 µM and the TGI (SNB-75 CNS) was 38.7 µM. For the same molecule, the TGI (UO-31 renal) was 25.4 µM, the TGI (MCF7 breast) was 31.5 µM and the TGI (SN12C renal) was 34.3 µM. The TGI (SF-268 CNS) was 99.8 µM, the TGI (NCI-H23 lung) was 37.9 µM and the TGI (NCI-H226 lung) was 32.5 µM. For the same molecule, the TGI (UACC-257 melanoma) was 32.9 µM, the TGI (NCI-H460 lung) was 29.8 µM and the TGI (A549 NSCLC) was 39.2 µM. For the same molecule, the TGI (MOLT-4 leukemia) was 19.6 µM, the TGI (NCI-H522 lung) was 29.8 µM and the TGI (A498 renal) was 91.9 µM. For the same molecule, the TGI (SK-MEL-2 melanoma) was 37.6 µM, the TGI (HS 578T breast) was 47.8 µM and the TGI (TK-10 renal) was 31.9 µM. It also gave a TGI (KM12 colon) of 30 µM, a TGI (SF-539 CNS) of 31.3 µM and a TGI (SR leukemia) of 35.1 µM. The TGI (EKVX NSCLC) was 62.5 µM, the TGI (MDA-N) was 47.8 µM and the TGI (MDA-MB-435) was 33.8 µM. For the same molecule, the TGI (RPMI-8226 leukemia) was 92 µM, the TGI (CAKI-1 renal) was 39.3 µM and the TGI (SW-620 colon) was 39.6 µM. The TGI (HOP-92 NSCLC) was 58.1 µM, the TGI (BT-549 breast) was 29.6 µM and the TGI (HCT-15 colon) was 27.6 µM. The TGI (SK-MEL-28 melanoma) was 38.5 µM, the TGI (MDA-MB-231 breast) was 40.1 µM and the TGI (SK-MEL-5 melanoma) was 40.7 µM. For the same molecule, the TGI (MALME-3M melanoma) was 33.3 µM.
